Experimental data reported in patent publication US20090054512A1, “USE OF ORGANIC COMPOUNDS” (priority 2006, published 2009).

Test system: patients with type 2 diabetes
Test: Randomized, double-blind, two-period crossover clinical study of 100 mg vildagliptin once daily in the morning or the evening
Type: in vivo, human

With `N#C[C@@H]1CCCN1C(=O)CNC12CC3CC(CC(O)(C3)C1)C2` [vildagliptin, (S)-1-[(3-hydroxy-1-adamantyl)amino]acetyl-2-cyano-pyrrolidine] the “overnight HGP (hepatic glucose production) reduction” value (administered before or with the evening meal, especially patients with baseline HbA1c>8.0%) was “unexpected additional benefit on the overnight HGP reduction” and the “overnight hepatic glucose production” value (at least 100 mg before or with the morning meal, or before or with the lunch, type 2 diabetes, especially baseline HbA1c>8.0%) was “can be reduced”.
